Source: patent publication US10138255B2, “Piperazine derivatives as HIV protease inhibitors” (Merck Sharp & Dohme Corp., priority 2014, dated 2018)

test system: HIV-1 (H9IIIB strain); assay: Cell-Based HIV Infection Assay Using a Reporter (MT4-GFP cells); settings: Human immunodeficiency virus 1, inflection point (IP) of viral growth inhibition; MT4-GFP cells infected with HIV-1 H9IIIB; 50% normal human serum; mean of at least two independent experiments; read-out: Cell Based IP (50% NHS)
Procedure, shortened: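 MT4-GFP cells (HIV LTR-driven GFP) bulk-infected with HIV-1 H9IIIB at low MOI for 24 h, washed, then exposed to compounds in RPMI plus 50% normal human serum, 0.4% DMSO. Infected cells counted at 24 and 48 h; R0 = 48 h/24 h ratio, inhibition normalised to DMSO and triple-drug control; IP from 4-parameter fit.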

| SMILES | EC50 [nM] |
| --- | --- |
| COC(=O)N[C@H](C(=O)Nc1cccc(F)c1CCC1CNC2CCCS(=O)(=O)N1C2)[C@@H](c1ccc(Cl)cc1)C1CC(F)(F)C1 (stereo partly drawn) [Example 4, Methyl [(1S,2R)-2-(4-chlorophenyl)-2-(3,3-difluorocyclobutyl)-1-({2-[2-(2,2-dioxido-2-thia-1,7-diazabicyclo[4.3.1]dec-9-yl)ethyl]-3-fluorophenyl}carbamoyl)ethyl]carbamate] | 13 |
| COC(=O)N[C@H](C(=O)N[C@H]1CCC[C@@H]1CC[C@H]1CN[C@@H]2CCCS(=O)(=O)N1C2)[C@@H](c1ccc(F)cc1)C1C[C@@H](C)O[C@@H](C)C1 (stereo partly drawn) [Example 108, methyl [(1S,2R)-2-[(2R,4s,6S)-2,6-dimethyltetrahydro-2H-pyran-4-yl]-1-{[(1S,2R)-2-{2-[(6R,9S)-2,2-dioxido-2-thia-1,7-diazabicyclo[4.3.1]dec-9-yl]ethyl}cyclopentyl]carbamoyl}-2-(4-fluorophenyl)ethyl]carbamate] | 50 |
| Cn1nc([C@H](c2ccc(Cl)cc2)[C@H](N)C(=O)Nc2cccc(F)c2CC[C@H]2CN[C@@H]3CCCS(=O)(=O)N2C3)cc1C(F)(F)F [Example 260, (βR)-4-chloro-N-(2-{2-[(6R,9S)-2,2-dioxido-2-thia-1,7-diazabicyclo[4.3.1]dec-9-yl]ethyl}-3-fluorophenyl)-β-[1-methyl-5-(trifluoromethyl)-1H-pyrazol-3-yl]-L-phenylalaninamide] | 4.4 |
| CC1(C)CC([C@H](c2ccc(F)cc2)[C@H](N)C(=O)N[C@H]2CCC[C@@H]2CC[C@H]2CN[C@@H]3CCCS(=O)(=O)N2C3)CCO1 (stereo partly drawn) [Example 54, (βR)-β-(2,2-dimethyltetrahydro-2H-pyran-4-yl)-N-[(1S,2R)-2-{2-[(6R,9S)-2,2-dioxido-2-thia-1,7-diazabicyclo[4.3.1]dec-9-yl]ethyl}cyclopentyl]-4-fluoro-L-phenylalaninamide] | 180 |
| CC[C@H](C)N[C@H](C(=O)N[C@H]1CCC[C@@H]1CC[C@H]1CN[C@@H]2CCCS(=O)(=O)N1C2)[C@@H](c1ccc(Cl)cc1)C1CCOC(C)(C)C1 (stereo partly drawn) [Example 183, (βR)-4-chloro-β-(2,2-dimethyltetrahydro-2H-pyran-4-yl)-N-[(1S,2R)-2-{2-[(6R,9S)-2,2-dioxido-2-thia-1,7-diazabicyclo[4.3.1]dec-9-yl]ethyl}cyclopentyl]-Nα-[(1S)-1-methylpropyl]-L-phenylalaninamide] | 1300 |
| N[C@H](C(=O)Nc1cccc(F)c1CC[C@H]1CNC2CCCS(=O)(=O)N1C2)[C@@H](c1ccc(Cl)cc1)C1CCS(=O)(=O)CC1 (stereo partly drawn) [Example 158, (βR)-4-chloro-β-(1,1-dioxidotetrahydro-2H-thiopyran-4-yl)-N-(2-{2-[(9S)-2,2-dioxido-2-thia-1,7-diazabicyclo[4.3.1]dec-9-yl]ethyl}-3-fluorophenyl)-L-phenylalaninamide] | 110 |
| N[C@H](C(=O)Nc1cccc(F)c1CC[C@H]1CN[C@@H]2CCCS(=O)(=O)N1CC2)[C@@H](c1ccc(F)cc1)c1cc(F)cc(F)c1 [Example 276, (2S,3S)-2-Amino-3-(3,5-difluorophenyl)-N-(2-(2-((6R,9S)-2,2-dioxido-2-thia-1,7-diazabicyclo[4.3.2]undecan-9-yl)ethyl)-3-fluorophenyl)-3-(4-fluorophenyl)propanamide] | 6.1 |
| COc1ccc([C@H](c2ccc(Cl)cc2)[C@H](N)C(=O)N[C@H]2CCC[C@@H]2CC[C@H]2CN[C@@H]3CCCS(=O)(=O)N2C3)cn1 [Example 80, (βS)-4-chloro-N-[(1S,2R)-2-{2-[(6R,9S)-2,2-dioxido-2-thia-1,7-diazabicyclo[4.3.1]dec-9-yl]ethyl}cyclopentyl]-β-(6-methoxypyridin-3-yl)-L-phenylalaninamide] | 71 |
| COC(=O)N[C@H](C(=O)Nc1cccc(F)c1CC[C@H]1CN[C@@H]2CCC(C)S(=O)(=O)N1C2)[C@@H](c1ccc(F)cc1)C1C[C@@H](C)O[C@@H](C)C1 (stereo partly drawn) [Example 109, methyl [(1S,2R)-2-[(2R,6S)-2,6-dimethyltetrahydro-2H-pyran-4-yl]-1-[(3-fluoro-2-{2-[(6R,9S)-3-methyl-2,2-dioxido-2-thia-1,7-diazabicyclo[4.3.1]dec-9-yl]ethyl}phenyl)carbamoyl]-2-(4-fluorophenyl)ethyl]carbamate] | 38 |
| CC(C)Oc1cc([C@H](c2ccc(Cl)cc2)[C@H](N)C(=O)Nc2cccc(F)c2CCC2CNC3CCCS(=O)(=O)N2C3)ccn1 (stereo partly drawn) [Example 17, (βS)-4-Chloro-N-{2-[2-(2,2-dioxido-2-thia-1,7-diazabicyclo[4.3.1]dec-9-yl)ethyl]-3-fluorophenyl}-β-[2-(1-methylethoxy)pyridin-4-yl]-L-phenylalaninamide] | 8.9 |
| COC(=O)N[C@H](C(=O)Nc1cccc(F)c1CC[C@H]1CN[C@@H]2CCCS(=O)(=O)N1C2)[C@@]1(c2ccc(Cl)cc2)C[C@@H](C)O[C@@H](C)C1 [Example 167, methyl {(1S)-1-[(2R,4r,6S)-4-(4-chlorophenyl)-2,6-dimethyltetrahydro-2H-pyran-4-yl]-2-[(2-{2-[(6R,9S)-2,2-dioxido-2-thia-1,7-diazabicyclo[4.3.1]dec-9-yl]ethyl}-3-fluorophenyl)amino]-2-oxoethyl}carbamate] | 27 |
| N[C@H](C(=O)Nc1cccc(F)c1CCC1CNC2CCCS(=O)(=O)N1C2)[C@H](c1ccc(F)cc1)C1CCC(F)(F)CC1 (stereo partly drawn) [Example 61, (βS)-β-(4,4-difluorocyclohexyl)-N-{2-[2-(2,2-dioxido-2-thia-1,7-diazabicyclo[4.3.1]dec-9-yl)ethyl]-3-fluorophenyl}-4-fluoro-L-phenylalaninamide] | 160 |
| COC(=O)N[C@@H](C(=O)N[C@H]1CCC[C@@H]1CC[C@H]1CN[C@@H]2CCCS(=O)(=O)N1C2)[C@@H](c1ccc(Cl)cc1)C1CCN(C(=O)OC2(C)CC2)CC1 [Example 138, 1-methylcyclopropyl 4-{(1R,2R)-1-(4-chlorophenyl)-3-{[(1S,2R)-2-{2-[(6R,9S)-2,2-dioxido-2-thia-1,7-diazabicyclo[4.3.1]dec-9-yl]ethyl}cyclopentyl]amino}-2-[(methoxycarbonyl)amino]-3-oxopropyl}piperidine-1-carboxylate] | 490 |
| COC(=O)N[C@H](C(=O)Nc1cccc(F)c1CCC1CNC2CCCS(=O)(=O)N1C2)[C@H](c1ccc(F)cc1)C1CCC(F)(F)CC1 (stereo partly drawn) [Example 62, methyl [(1S,2S)-2-(4,4-difluorocyclohexyl)-1-({2-[2-(2,2-dioxido-2-thia-1,7-diazabicyclo[4.3.1]dec-9-yl)ethyl]-3-fluorophenyl}carbamoyl)-2-(4-fluorophenyl)ethyl]carbamate] | 190 |
| CC1(C)CC([C@H](c2ccc(Cl)cc2)[C@H](NCCCC(F)(F)F)C(=O)N[C@H]2CCC[C@@H]2CC[C@H]2CN[C@@H]3CCCS(=O)(=O)N2C3)CCO1 (stereo partly drawn) [Example 184, (βR)-4-chloro-β-(2,2-dimethyltetrdhydro-2H-pyran-4-yl)-N-[(1S,2R)-2-{2-[(6R,9S)-2,2-dioxido-2-thia-1,7-diazabicyclo[4.3.1]dec-9-yl]ethyl}cyclopentyl]-Nα-(4,4,4-trifluorobutyl)-L-phenylalaninamide] | 330 |
| CC1(OC(=O)N2CCC([C@H](c3ccc(Cl)cc3)[C@H](N)C(=O)N[C@H]3CCC[C@@H]3CC[C@H]3CN[C@@H]4CCCS(=O)(=O)N3C4)CC2)CC1 [Example 208, 1-methylcyclopropyl 4-[(1R,2S)-2-amino-1-(4-chlorophenyl)-3-{[(1S,2R)-2-{2-[(6R,9S)-2,2-dioxido-2-thia-1,7-diazabicyclo[4.3.1]dec-9-yl]ethyl}cyclopentyl]amino}-3-oxopropyl]piperidine-1-carboxylate] | 100 |
| N[C@H](C(=O)N[C@H]1CCCC[C@@H]1CC[C@H]1CN[C@@H]2CCCS(=O)(=O)N1C2)[C@@H](c1ccc(Cl)cc1)c1cc(F)cc(F)c1 [Example 160, (βS)-β-(4-chlorophenyl)-N-[(1S,2R)-2-{2-[(6R,9S)-2,2-dioxido-2-thia-1,7-diazabicyclo[4.3.1]dec-9-yl]ethyl}cyclohexyl]-3,5-difluoro-L-phenylalaninamide] | 22 |
| COC(=O)N[C@H](C(=O)N[C@H]1CCC[C@@H]1CC[C@H]1CN[C@@H]2CCCS(=O)(=O)N1C2)[C@@H](c1ccc(Cl)cc1)C1CCOC(C)(C)C1 (stereo partly drawn) [Example 29, Methyl [(1S,2R)-2-(4-chlorophenyl)-2-(2,2-dimethyltetrahydro-2H-pyran-4-yl)-1-{[(1S,2R)-2-{2-[(6R,9S)-2,2-dioxido-2-thia-1,7-diazabicyclo[4.3.1]dec-9-yl]ethyl}cyclopentyl]carbamoyl}ethyl]carbamate] | 23 |
| N[C@H](C(=O)Nc1cccc(F)c1CC[C@H]1CN[C@@H]2CCCS(=O)(=O)N1C2)[C@@H](c1ccc(Cl)cc1)c1nc(C(F)(F)F)cs1 [Example 264, (βR)-4-chloro-N-(2-{2-[(6R,9S)-2,2-dioxido-2-thia-1,7-diazabicyclo[4.3.1]dec-9-yl]ethyl}-3-fluorophenyl)-β-[4-(trifluoromethyl)-1,3-thiazol-2-yl]-L-phenylalaninamide] | 6.9 |
| COC(=O)N[C@H](C(=O)N[C@H]1CCCC[C@@H]1CC[C@H]1CN[C@@H]2CCCS(=O)(=O)N1C2)[C@@H](c1ccc(Cl)cc1)[C@@H]1CCOC(C)(C)C1 [Example 131, methyl [(1S,2R)-2-(4-chlorophenyl)-2-[(4R)-2,2-dimethyltetrahydro-2H-pyran-4-yl]-1-{[(1S,2R)-2-{2-[(6R,9S)-2,2-dioxido-2-thia-1,7-diazabicyclo[4.3.1]dec-9-yl]ethyl}cyclohexyl]carbamoyl}ethyl]carbamate] | 24 |
| CC1(C)CC([C@H](c2ccc(Cl)cc2)[C@H](NCCO)C(=O)N[C@H]2CCC[C@@H]2CC[C@H]2CN[C@@H]3CCCS(=O)(=O)N2C3)CCO1 (stereo partly drawn) [Example 231, (βR)-4-chloro-β-(2,2-dimethyltetrahydro-2H-pyran-4-yl)-N-[(1S,2R)-2-{2-[(6R,9S)-2,2-dioxido-2-thia-1,7-diazabicyclo[4.3.1]dec-9-yl]ethyl}cyclopentyl]-Nα-(2-hydroxyethyl)-L-phenylalaninamide] | 310 |
